Reference: patent US12544444B2, “Administration of tailored feedstock to increase antibiotic susceptibility” (U.S. Government, as represented by the Sec. of Army, c/o …, priority 2018, dated 2026)

Test system: Clostridium acetobutylicum
Assay: antibiotic sensitivity test (OD600 after 24 hours in 96-well plate, anaerobic)
Type: cell-based, Clostridium acetobutylicum strain ATCC 824
Conditions: C. acetobutylicum given oxidized feedstock compared to glucose as feedstock; FIG. 2, after 24 hours
Description: Bacterial culture conditions and strains have been previously published. All strains and cultures were maintained or grown in an atmosphere of 5.0% H2, 5.0% CO2, and 90.0% N2. Clostridium acetobutylicum strain ATCC 824 was obtained from ATCC and cultured using company protocol at 37° C. into Clostridial growth medium or CGM containing 0.75 g KH2PO4, 0.75 g K2HPO4, 1.0 g NaCl, 0.017 g MnSO4.5H2O, 0.70 g MgSO4.7H2O, 0.01 g FeSO4.7H2O, 2.0 g 1-asparagine, 5.0 g yeast extract, 2.0 g (NH4)2SO4, and 0.5% final concentration of desired carbohydrate—D-glucose, D-galacturonic acid, D-gluconic acid—at pH 6.5. Active cultures from initial growth stock were added to potato glucose medium to be maintained and stored as a spore solution. Potato glucose medium or PGM contains per liter of H2O—150 g grated fresh potato, 10 g D-glucose, 0.5 g (NH4)SO4, and 3 g CaCO3. The medium was boiled for 1 hour and strained through gauze before sterilization and use for culture. […]
The protocol for antibiotic sensitivity test was performed as follows in anaerobic conditions: 200 μL of CGM medium containing either 0.5% D-galacturonate or D-glucose was aliquoted into a sterile Costar® 96-well polystyrene flat bottom plate in triplicate per test condition. […] The optical density of the cultures in the wells were measured at 600 nm via a commercially available plate reader.

For Cc1ncc([N+](=O)[O-])n1CCO [metronidazole], which “antibiotic (metronidazole) susceptibility increase” value is on record?
The value was “at least two-fold”.
